Test results reported in PubChem BioAssay (NCI).
Values joined by “and” are separate entries in the source; they are usually repeats but may differ in a detail not shown here. Equal entries are not always repeated.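 Five concentrations, 48 hours, 96-well plates. GI50 = concentration required for 50% inhibition of growth. TGI: total growth inhibition.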 Where a SMILES comes first, the peptide text is derived from it. [ ]: non-standard residue; d: D form. The star is where a group is joined. ξ: configuration not given here. NMeY = CN[C@@H](Cc1ccc(O)cc1)C(=O)O; Cbz = O=C(OCc1ccccc1)*; ξA = CC(N)C(=O)O

What was measured:
Assay in all cases: growth of human tumour cells (NCI), 48 h
SK-MEL-28 melanoma = system: SK-MEL-28 melanoma
SF-268 CNS = system: SF-268 CNS
K-562 leukemia = system: K-562 leukemia
SNB-19 CNS = system: SNB-19 CNS
NCI-H23 lung = system: NCI-H23 lung
RXF 393 renal = system: RXF 393 renal
SR leukemia = system: SR leukemia
HCT-116 colon = system: HCT-116 colon
MCF7 breast = system: MCF7 breast
MDA-N = system: MDA-N

SMILES	TGI (SK-MEL-28 melanoma) [µM]	TGI (SF-268 CNS) [µM]	TGI (K-562 leukemia)	TGI (SNB-19 CNS)	TGI (NCI-H23 lung)	TGI (RXF 393 renal)	TGI (SR leukemia)	TGI (HCT-116 colon)	TGI (MCF7 breast) [µM]	TGI (MDA-N) [µM]	GI50 (SK-MEL-28 melanoma) [µM]	GI50 (K-562 leukemia) [µM]	GI50 (SNB-19 CNS) [µM]	GI50 (NCI-H23 lung) [µM]	GI50 (RXF 393 renal) [µM]	GI50 (SR leukemia)	GI50 (HCT-116 colon) [µM]	GI50 (MDA-N) [µM]
COc1ccc(C[C@@H](C(=O)NCC(N)=O)N(C)C(=O)[C@@H]2CCCN2C(=O)[C@H](CC(C)C)NC(=O)C(C)NC(=O)OCc2ccccc2)cc1 (some centres not stated) (Cbz-[ξA]LP[NMeY](Me)G-NH2)	> 100	> 100	> 100 µM	> 100 µM	> 100 µM	> 100 µM	> 100 µM	> 100 µM	> 100	> 100	–	–	–	–	–	–	–	–
NC(N)=N/N=C(\c1ccc(Cl)cc1)C1CC1	38.2	> 100	55.7 µM	> 100 µM	73.1 µM	> 100 µM	29.1 µM	31 µM	32.5	30.8	–	–	–	–	–	–	–	–
CN(C)CCCn1c2ccccc2c2cnccc21	> 100	> 100	> 100 µM	> 100 µM	> 100 µM	> 100 µM	43.4 µM	> 100 µM	> 100	> 100	–	–	–	–	–	–	–	–
COc1cn2c(cc1=O)COc1ccc(-c3ccccc3)cc1-2	> 100	> 100	> 100 µM	> 100 µM	> 100 µM	> 100 µM	> 100 µM	> 100 µM	> 100	> 100	–	–	–	–	–	–	–	–
Oc1ccc2ccccc2c1-c1nnc(CCCCCCCCc2nnc(-c3c(O)ccc4ccccc34)o2)o1	> 68.5	> 100	25 µM and > 57.5 µM	25 µM and > 100 µM	6.33 µM and > 62.2 µM	7.93 µM and 31.8 µM	25 µM and 11.9 µM	13.7 µM and > 50.3 µM	> 37.2	–	> 25	1.68	17.6	1.22	1.39	1.6 µM and 0.28 µM	0.796	2.67
CC1=NN(c2ccc(C)cc2)C2(C1)SCC(=O)N2c1nc2ccccc2s1 (configuration not stated)	> 100	> 100	> 100 µM	> 100 µM	77.5 µM	54.8 µM	28.1 µM	51.1 µM	48.8	70.2	–	–	–	–	–	–	–	–
CSc1c(C(C)=O)c(O)n(-c2ccc(Cl)cc2)c(=O)c1C#N	> 100	> 100	92.2 µM	> 100 µM	> 100 µM	> 100 µM	> 100 µM	> 100 µM	> 100	> 100	–	–	–	–	–	–	–	–
CN(C)c1ccc(/C=C(\NC(=O)c2ccccc2)C(=O)Nc2ccccc2C(=O)NN2C(=O)CSC2c2ccc(N(C)C)cc2)cc1 (configuration not stated)	> 100	> 100	> 100 µM	> 100 µM	> 100 µM	> 100 µM	> 100 µM	> 100 µM	> 100	> 100	–	–	–	–	–	–	–	–
CCCCC[C@H](O)[C@H](C)C=C1SCCCS1	> 100	> 100	> 100 µM	> 100 µM	> 100 µM	> 100 µM	> 100 µM	> 100 µM	> 100	> 100	–	–	–	–	–	–	–	–
CC(C)=CCN(N=O)c1ncnc2nc[nH]c12	> 100	> 100	> 100 µM	> 100 µM	> 100 µM	> 100 µM	> 100 µM	> 100 µM	> 100	> 100	–	–	–	–	–	–	–	–
N#Cc1c(=O)c2cccnc2n2c1[nH]c1ccccc12	> 100	> 100	> 100 µM	> 100 µM	> 100 µM	> 100 µM	> 100 µM	> 100 µM	> 100	> 100	–	–	–	–	–	–	–	–
O=C1C/C(=C\O)C(=O)c2ccccc2N1	> 100	> 100	> 100 µM	> 100 µM	> 100 µM	> 100 µM	> 100 µM	> 100 µM	> 100	> 100	–	–	–	–	–	–	–	–
Cc1[nH]c(=O)nc(N/N=C/c2ccc(Cl)c(Cl)c2)c1C(=O)Nc1ccc(Cl)c(Cl)c1	23.4	40.7	> 100 µM	32 µM	> 44.9 µM	32.7 µM	> 100 µM	> 20.5 µM	57	39.7	–	–	–	–	–	–	–	–
COc1cc(C(=O)Nc2nnc(S(N)(=O)=O)s2)cc(OC)c1OC	> 100	> 100	> 100 µM	> 100 µM	> 100 µM	> 100 µM	> 100 µM	> 100 µM	> 100	> 100	–	–	–	–	–	–	–	–
COc1cc(S(=O)(=O)Nc2nc(-c3ccc(N4C(=O)/C(=C/c5ccccc5)N=C4c4ccccc4)cc3)cs2)ccc1Cl	> 100	> 100	> 100 µM	> 100 µM	80.4 µM	91.7 µM	> 100 µM	> 100 µM	> 100	> 100	–	–	–	–	–	–	–	–
CCOC(=O)c1c2c(n(C)c1-c1ccccc1)C(=O)C(C)=CC2=O	27.8	23.1	> 33.2 µM	26.7 µM	29.7 µM	23.6 µM	9.39 µM	15 µM	6.01	4.08	–	–	–	–	–	–	–	–
CC1(C)OC[C@@H](/C=C\CCO[Si](c2ccccc2)(c2ccccc2)C(C)(C)C)N1C(=O)c1ccccc1	> 100	81.4	52.1 µM	> 100 µM	96.7 µM	27.9 µM	23.7 µM	21.4 µM	24.4	> 100	–	–	–	–	–	–	–	–
